Assay [1] concerns the target human CARM1 (PRMT4) (Homo sapiens (Human), UniProt Q86X55). Briefly: CARM1 enzyme assay on peptide substrate (3H-SAM Flashplate). The settings on record: Biochemical potencies, read-out: Biochem IC50. From the text:
S-adenosylmethionine (SAM), S-adenosylhomocysteine (SAH), bicine, Tween20, dimethylsulfoxide (DMSO), bovine skin gelatin (BSG), sodium butyrate and Tris(2-carboxyethyl)phosphine hydrochloride solution (TCEP) were purchased from Sigma-Aldrich at the highest level of purity possible. ^3H-SAM was purchase from American Radiolabeled Chemicals with a specific activity of 80 Ci/mmol. 384-well streptavidin Flashplates were purchased from PerkinElmer.
Peptide representative of human histone H3 residues 16-30 was synthesized with an N-terminal linker-affinity tag motif and a C-terminal amide cap by 21st Century Biochemicals. […] The sequence was Biot-Ahx-[…]-amide and contained a monomethylated arginine at position 26 (SEQ ID NO.:1).
The gene sequence encoding isoform 1 containing a deletion of amino acids 539-561 was amplified subsequently and subcloned into pFastBacMam (Viva Biotech).
Recombinant baculovirus were generated according to Bac-to-Bac kit instructions (Life Technologies). Protein over-expression was accomplished by infecting exponentially growing HEK 293F cell culture at 1.3×10^6 cell/ml with virus (MOI=10) in the presence of 8 mM sodium butyrate. Infections were carried out at 37° C. for 48 hours, harvested by centrifugation, and stored at −80° C. for purification.
Expressed full-length human Flag- and His-tagged CARM1 protein was purified from cell paste by anti-flag M2 affinity chromatography with resin equilibrated with buffer containing 20 mM Tris, 150 mM NaC, 5% glycerol, pH 7.8. Column was washed with 500 mM NaCl in buffer A and Flag-CARM1-His was eluted with 200 ug/ml FLAG peptide in buffer A. Pooled fractions were dialyzed in 20 mM Tris, 150 mM NaCl, 5% glycerol and 1 mM DTT, pH 7.8.
The assays were all performed in a buffer consisting of 20 mM Bicine (pH=7.6), 1 mM TCEP, 0.005% BSG, and 0.002% Tween 20, prepared on the day of use. Compounds in 100% DMSO (1 ul) were spotted into a polypropylene 384-well V-bottom plates (Greiner) using a Platemate Plus outfitted with a 384-channel head (Thermo Scientific). DMSO (1 ul) was added to Columns 11, 12, 23, 24, rows A-H for the maximum signal control and 1 ul of SAH, a known product and inhibitor of CARM1, was added to columns 11, 12, 23, 24, rows I-P for the minimum signal control. A cocktail (40 ul) containing the CARM1 enzyme was added by Multidrop Combi (Thermo-Fisher). The compounds were allowed to incubate with CARM1 for 30 min at room temperature, then a cocktail (10 ul) containing ^3H-SAM and peptide was added to initiate the reaction (final volume=51 ul). The final concentrations of the components were as follows: CARM1 was 0.25 nM, ^3H-SAM was 30 nM, peptide was 250 nM, SAH in the minimum signal control wells was 1 mM, and the DMSO concentration was 2%. The assays were stopped by the addition of non-radiolabeled SAM (10 ul) to a final concentration of 300 uM, which dilutes the ^3H-SAM to a level where its incorporation into the peptide substrate is no longer detectable. 50 ul of the reaction in the 384-well polypropylene plate was then transferred to a 384-well Flashplate and the biotinylated peptides were allowed to bind to the streptavidin surface for at least 1 hour before being washed once with 0.1% Tween20 in a Biotek ELx405 plate washer. The plates were then read in a PerkinElmer TopCount plate reader to measure the quantity of ^3H-labeled peptide bound to the Flashplate surface, measured as disintegrations per minute (dpm) or alternatively, referred to as counts per minute (cpm).
The Hill Coefficient normally allowed to float but may also be fixed at 1 in a 3-parameter fit.

Assay [2] concerns asymmetric di-methyl PABP1 in RKO cells. Briefly: RKO methylation assay, In Cell Western (ICW) for asymmetric di-methyl PABP1. It counts as cell-based. The conditions noted are these: Homo sapiens, RKO, Cellular potencies, ICW PABP1me2a. An outline of the steps: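 In-cell Western on fixed RKO cells after 48 h compound exposure: anti-asymmetric di-methyl PABP1 signal at 800 nm over DRAQ5 DNA signal at 700 nm. Percent inhibition set between DMSO wells and wells with 20 μM reference compound; IC50 curves fitted in triplicate.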

Where only a bound is given, the exact number is not on record here.

The record followed here is US10633389B2, “CARM1 inhibitors and uses thereof” (Epizyme, Inc., priority 2013, dated 2020).

Sequence of human CARM1 (PRMT4) (Q86X55 other isoform, or with tags, fused parts or gaps isoform Q86X55-1): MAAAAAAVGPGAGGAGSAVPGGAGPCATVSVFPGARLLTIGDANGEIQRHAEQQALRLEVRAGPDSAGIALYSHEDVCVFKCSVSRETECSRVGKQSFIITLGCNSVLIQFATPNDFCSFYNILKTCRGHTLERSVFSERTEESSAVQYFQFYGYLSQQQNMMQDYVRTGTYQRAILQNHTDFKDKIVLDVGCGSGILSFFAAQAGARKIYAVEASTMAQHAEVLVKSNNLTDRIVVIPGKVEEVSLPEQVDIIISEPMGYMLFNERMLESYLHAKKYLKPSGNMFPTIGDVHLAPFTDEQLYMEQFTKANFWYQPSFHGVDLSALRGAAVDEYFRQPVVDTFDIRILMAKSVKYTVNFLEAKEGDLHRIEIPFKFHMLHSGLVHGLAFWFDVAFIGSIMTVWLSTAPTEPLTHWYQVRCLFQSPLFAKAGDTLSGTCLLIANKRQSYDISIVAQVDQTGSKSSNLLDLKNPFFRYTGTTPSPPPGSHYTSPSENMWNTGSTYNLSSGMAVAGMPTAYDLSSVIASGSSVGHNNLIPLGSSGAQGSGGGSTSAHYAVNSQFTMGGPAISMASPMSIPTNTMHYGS

As for `CNCC(O)COc1cccc(-c2nc(C(=O)N(C)C)cc(-c3c(C)noc3C)n2)c1` (stereo not drawn) [Example 63-1a], the IC50 – broadly, the concentration needed to halve the response being measured – in assay [1] lay in the range of 1 to 3 µM; in assay [2], 10 to 20 µM.
For the molecule `CNCC(O)COc1cccc(-c2nc(NC3CCOCC3)cc(C3CC3)n2)c1` (stereo not drawn) [Example 646-1a], the IC50 was 0.1 to 1 µM in assay [1] and ≥ 20 µM in assay [2].
For `CNCC(O)COc1cccc(-c2nc(N[C@@H]3CCOC3)c(C)c(-c3cccnc3N)n2)c1` (stereo partly drawn) [Example 416-1a], the IC50 fell in the range of 3 to 10 µM in assay [1] and 10 to 20 µM in assay [2].
For `CNCC(O)COc1cccc(-c2nc(N[C@@H]3CCOC3)c(C)c(N3CCn4cnnc4C3)n2)c1` (stereo partly drawn) [Example 418-1a] the same measures were 0.1 to 1 µM and 10 to 20 µM.
For `CNCC(O)COc1cccc(-c2nc(N[C@@H]3CCOC3)c(C)c(-c3ccc[nH]c3=O)n2)c1` (stereo partly drawn) [Example 371-1a] the same measures were 1 to 3 µM and 10 to 20 µM.
Turning to `CNC[C@@H](O)COc1cccc(-c2nc(NCC3CCOCC3)cc(-c3cn(S(C)(=O)=O)c4ncncc34)n2)c1` [Example 686-1a], the figures for the IC50 in assay [1] and in assay [2] were 0.1 to 1 µM and ≥ 20 µM, respectively.
In the case of `CNCC(O)COc1cccc(-c2nc(NC3CCOCC3)c(C)c(N(C3CCOCC3)C3CC3)n2)c1` (stereo not drawn) [Example 607-1a], the IC50 in assay [1] lay in the range of 3 to 10 µM; in assay [2] it was 10 to 20 µM.
For `CNCC(O)COc1cccc(-c2nc(-c3nccn3C)cc(N(C)C3CCOCC3)n2)c1` (stereo not drawn) [Example 583-1a] the same measures were 0.1 to 1 µM and 10 to 20 µM.
For `CNCC(O)COc1cccc(-c2nc(C(=O)N(C)C3CCOCC3)cc(N(C)C3CCOCC3)n2)c1` (stereo not drawn) [Example 602-1a] the same measures were 0.1 to 1 µM and 10 to 20 µM.
In the case of `CNCC(O)COc1cccc(-c2nc(NCCOC)cc(-c3cncnc3)n2)c1` (stereo not drawn) [Example 659-1a], the IC50 in assay [1] was 0.1 to 1 µM; in assay [2] it was ≥ 20 µM.
In the case of `CNCC(O)COc1cccc(-c2nc(OC)c(C)c(-c3c(C)noc3C)n2)c1` (stereo not drawn) [Example 83-1a], the IC50 in assay [1] fell in the range of 0.1 to 1 µM; in assay [2], 10 to 20 µM.
Consider `CNCC(O)COc1cccc(-c2nc(N[C@@H]3CCOC3)c(C)c(N3CCC[C@@H]3C(=O)NC)n2)c1` (stereo partly drawn) [Example 450-1a], for which the IC50 in assay [1] is 0.1 to 1 µM; in assay [2] it was 10 to 20 µM.
In the case of `CNCC(O)COc1cccc(-c2nc(O)c(C)c(-c3c(C)noc3C)n2)c1` (stereo not drawn) [Example 73-1a], the values for the half-maximal inhibitory concentration (IC50) in assay [1] and in assay [2] were 0.1 to 1 µM and 10 to 20 µM, respectively.
In the same order, the values of `CNCC(O)COc1cccc(-c2nc(C(=O)NC3CCOCC3)c(C)c(-c3c(C)noc3C)n2)c1` (stereo not drawn) [Example 62-1a] are 1 to 3 µM and 10 to 20 µM.
For `CNCC(O)COc1cccc(-c2nc(C(=O)N(C)CC3CCOCC3)cc(-c3c(C)noc3C)n2)c1` (stereo not drawn) [Example 46-1a] the same measures were 0.1 to 1 µM and 10 to 20 µM.
In the same order, the values of `CNCC(O)COc1cccc(-c2nc(N(C)C3CCOCC3)c(C)c(C(C)(C)O)n2)c1` (stereo not drawn) [Example 545-1a] are 0.1 to 1 µM and 10 to 20 µM.
Consider `CNCC(O)COc1cccc(-c2nc(N[C@@H]3CCOC3)c(C)c(N3CCCC3c3nc(C)no3)n2)c1` (stereo partly drawn) [Example 472-1a], for which the results for the IC50 in assay [1] and in assay [2] were 0.1 to 1 µM and 10 to 20 µM, respectively.
In the same order, the values of `CNCC(O)COc1cccc(-c2nc(N3CC4(CCOCC4)C3)cc(N(C)C3CCOCC3)n2)c1` (stereo not drawn) [Example 553-1a] are 0.1 to 1 µM and 10 to 20 µM.
In the same order, the values of `CNCC(O)COc1cccc(-c2nc(N[C@@H]3CCOC3)c(C3CC3)c(N3CCOCC3)n2)c1` (stereo partly drawn) [Example 413-1a] are 0.1 to 1 µM and 10 to 20 µM.
Turning to `CNCC(O)COc1cccc(-c2cc(C3CCOCC3)nc(N[C@H]3CCOC3)n2)c1` (stereo partly drawn) [Example 10-2], the IC50 in assay [1] lay within 0.1 to 1 µM.
Same read-out and setting: in the case of `NCC(O)COc1cccc(-c2cc(N3CCOCC3)nc(N3CCOCC3)n2)c1` (stereo not drawn) [Example 7-2] it was 0.1 to 1 µM; in that of `CNCC(O)COc1cccc(-c2nc(NC3CCOCC3)cc(N(C)C)n2)c1` (stereo not drawn) [Example 8-1], 0.1 to 1 µM; in that of `CNCC(O)COc1cccc(-c2nc(NC3CCOC3=O)cc(-c3c(C)noc3C)n2)c1` (stereo not drawn) [Example 24-1a], 0.1 to 1 µM.
